Read-outs that look alike come from different tables or passages of the source. Values belong to the compound of their own block, whether it stands above or below them.
Key:
[1] = molecular target: T1, FGF2 in recombinant human FGFR1/FGF2 complex (Homo sapiens, UniProt P09038); experiment: Thermal shift assay (TSA), ΔTm of FGF2 peak; type: binding; details: for ΔTm at 100 µM / ΔTm at 10 µM / ΔTm at 25 µM: read-out: ΔTm (° C.) −FGF2
T1 construct: made in house; host or cells: Escherichia coli BL21 (DE3) Star
T1 sequence (P09038 156-288 limits assumed): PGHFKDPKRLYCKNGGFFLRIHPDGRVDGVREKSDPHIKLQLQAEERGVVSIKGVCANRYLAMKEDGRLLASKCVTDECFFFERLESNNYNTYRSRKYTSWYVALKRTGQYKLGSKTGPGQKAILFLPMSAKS
T1 sequence (P11362 142-365 partner limits assumed): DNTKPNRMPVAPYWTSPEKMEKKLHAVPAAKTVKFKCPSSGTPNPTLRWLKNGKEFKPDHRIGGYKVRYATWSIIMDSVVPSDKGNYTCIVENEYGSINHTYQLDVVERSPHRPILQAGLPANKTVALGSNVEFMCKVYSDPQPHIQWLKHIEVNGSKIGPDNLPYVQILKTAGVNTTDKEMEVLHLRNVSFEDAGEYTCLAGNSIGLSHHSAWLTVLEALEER
Description: (§1) TSA was utilized to biophysically characterize the recombinant human FGFR1/FGF2 complex in the presence or absence of selected compounds of formula (I), Compounds 1, 2a-2f, 20, 5, 60, and 8-13. Compound 1 was prepared according to the procedures described in Example 1, and the other compounds were obtained from commercial sources. The assay functions by protein denaturation over a temperature gradient. During protein unfolding, exposed hydrophobic regions bind a dye and fluoresce due to solvent relaxation effects. Changes in the melting temperature of the protein complex in the presence of each compound were monitored and compounds were screened/ranked using this method.
(§2) Thawed aliquots of purified FGF2 (1.0 mg/mL) and FGFR1 (1.6 mg/mL) proteins were mixed in a 1:1 molar ratio ([…]) on ice for 30 min at 4° C. and plated prior to the thermal shift assay (TSA).
(§3) Complex formation was verified by loading the complexed material on a size exclusion column (superdex 10 300GL S200) and observing the monodisperse peak corresponding to the FGF2/FGFR1 complex (˜ 40 kDa). Compounds described herein were screened in dose response format (0-100 μM) with the FGF2/FGFR1 complex in triplicates. FGF2/ FGFR1/compound complexes were mixed in a 1000:1 ratio with Sypro Orange dye (Sigma-Aldrich). The samples were processed using a Bio-Rad CFX C96 Touch quantitative polymerase chain reaction and run using the FRET assay settings with a heating ramp of 0.3° C./s cycling from 4 to 100° C. Data analysis was performed using the Bio-Rad CFX Manager Software (version 3.1, Bio-Rad) and changes in the melting temperature (Tm) of the complex in the presence of each compound were monitored. The results are shown in Table 9 below and also in FIG. 1 (for Compound 10).

[2] = molecular target: T2, FGFR1 in recombinant human FGFR1/FGF2 complex (Homo sapiens, UniProt P11362); experiment: Thermal shift assay (TSA), ΔTm of FGFR1 peak; type: binding; details: for ΔTm at 100 µM / ΔTm at 10 µM / ΔTm at 25 µM: read-out: ΔTm (° C.) −FGFR1
T2 construct: made in house; host or cells: Escherichia coli BL21 (DE3) Star
T2 sequence (P11362 142-365 limits assumed): as the sequence (P11362 142-365 partner limits assumed) above
T2 sequence (P09038 156-288 partner limits assumed): as the sequence (P09038 156-288 limits assumed) above
Description: as §1, §2, §3

Compound: O=Cc1ccccc1 [Compound 1a]
ΔTm at 100 µM [1]: 0 °C
ΔTm at 100 µM [2]: 0.5 °C

Compound: O=Cc1ccc(F)cc1 [Compound 1b]
ΔTm at 100 µM ([1]; 100 μM compound): 1 °C
ΔTm at 100 µM ([2]; 100 μM compound): 0 °C

Compound: O=Cc1ccc(Cl)cc1 [Compound 1c]
ΔTm at 10 µM [1]: 2 °C
ΔTm at 10 µM [2]: -2.2 °C

Compound: O=Cc1ccc(Br)cc1 [Compound 1d]
ΔTm at 25 µM [1]: 1.6 °C
ΔTm at 25 µM [2]: -2.1 °C

Compound: O=Cc1ccccc1F [Compound 1e]
ΔTm at 100 µM ([1]; 100 μM compound): 0.3 °C
ΔTm at 100 µM ([2]; 100 μM compound): 0 °C

Compound: O=Cc1cccc(F)c1 [Compound 1f, 3-fluorobenzaldehyde]
ΔTm at 50 µM ([1]; 50 μM compound): -0.4 °C
ΔTm at 50 µM ([2]; 50 μM compound): 4 °C

Compound: CCN(CC)c1ccc(C=O)cc1 [Compound 1o, 4-diethylaminobenzaldehyde]
ΔTm at 25 µM [1]: -2 °C
ΔTm at 25 µM [2]: 5 °C

Compound: CCN(CC)c1ccc(/C=N/c2ccccc2)cc1 [Compound 4on]
ΔTm at 25 µM ([1]; 25 μM compound): -0.5 °C
ΔTm at 25 µM ([2]; 25 μM compound): 1.5 °C

Compound: CCN(CC)c1ccc(/C=N/Cc2ccccc2)cc1 [Compound 4ow, (E)-4-((benzylimino)methyl)-N,N-diethylaniline]
ΔTm at 25 µM ([1]; 25 μM compound): -2 °C
ΔTm at 25 µM ([2]; 25 μM compound): 4 °C

Compound: CCN(CC)c1ccc(/C=N/c2ccc(C(F)(F)F)cc2)cc1 [Compound 4oy, (E)-N, N-diethyl-4-(((4-(trifluoromethyl)phenyl)imino)methyl)aniline]
melting point: 129.3 to 129.6 °C
ΔTm at 50 µM ([1]; 50 μM compound): -4.5 °C
ΔTm at 50 µM ([2]; 50 μM compound): 7.8 °C

Compound: CCN(CC)c1ccc(C(C)=O)cc1 [Compound 16]
ΔTm at 25 µM [1]: 0 °C
ΔTm at 25 µM [2]: 0.2 °C

Compound: CCN(CC)c1ccc(C(=O)O)cc1 [Compound 17]
ΔTm at 100 µM ([1]; 100 μM compound): 0 °C
ΔTm at 100 µM ([2]; 100 μM compound): 2.5 °C

Compound: (4-(diethylamino)phenyl)(3-(trifluoromethoxy)phenyl)methanone [Compound 9om]
ΔTm (° C.) −FGF2 ([1]; 100 μM compound): +1.8 °C
ΔTm (° C.) −FGFR1 ([2]; 100 μM compound): +1.2 °C

The remaining lines, values ahead:

ΔTm at 2 µM ([1]; 2 μM compound): -1 °C
ΔTm at 2 µM ([2]; 2 μM compound): 3.5 °C
Compound: CCN(CC)c1ccc(/C=N/O)cc1 [Compound 5o]

ΔTm (° C.) −FGF2 ([1]; 10 μM compound): 0 °C
ΔTm (° C.) −FGFR1 ([2]; 10 μM compound): +0.3 °C
Compound: CCN(CC)c1ccc(C(O)c2cccc(OC(F)(F)F)c2)cc1 (centres unmarked) [Compound 8om, (4-(diethylamino)phenyl)(3-(trifluoromethoxy)phenyl)methano]

ΔTm at 10 µM ([1]; 10 μM compound): -6 °C
ΔTm at 10 µM ([2]; 10 μM compound): 9.8 °C
Compound: O=C(c1ccccc1)c1cccc(F)c1 [Compound 9af]

ΔTm at 10 µM ([1]; 10 μM compound): -0.3 °C
ΔTm at 10 µM ([2]; 10 μM compound): 6 °C
Compound: CCN(CC)c1ccc(C(=O)c2ccccc2)cc1 [Compound 9oa]

ΔTm at 2 µM ([1]; 2 μM compound): -5.2 °C
ΔTm at 2 µM ([2]; 2 μM compound): 11 °C
Compound: CCN(CC)c1ccc(/C=N/N=C/c2ccc(N(CC)CC)cc2)cc1 [Compound 10o, 4,4′-((1E,1′E)-hydrazine-1,2-diylidenebis(methaneylylidene))bis(N,N-diethylaniline)]

ΔTm at 50 µM ([1]; 50 μM compound): -4.2 °C
ΔTm at 50 µM ([2]; 50 μM compound): 2 °C
Compound: CCN(CC)c1ccc(C2N[C@@H](C(=O)O)C(C)(C)S2)cc1 (stereo partly drawn) [Compound 11o, (4S)-2-(4-(diethylamino)phenyl)-5,5-dimethylthiazolidine-4-carboxylic acid]

ΔTm at 50 µM ([1]; 50 μM compound): -2.1 °C
ΔTm at 50 µM ([2]; 50 μM compound): 0 °C
Compound: CCN(CC)c1ccc(/C=N/NC(=O)CN(C)C)cc1 [Compound 13oa, (E)-N′-(4-(diethylamino)benzylidene)-2-(dimethylamino)acetohydrazide]

ΔTm at 25 µM ([1]; 25 μM compound): -2.7 °C
ΔTm at 25 µM ([2]; 25 μM compound): 1.5 °C
Compound: CCN(CC)c1ccc(/C=N/NC(=O)C2CCOCC2)cc1 [Compound 13ob, (E)-N′-(4-(diethylamino)benzylidene)tetrahydro-2H-pyran-4-carbohydrazide]

ΔTm at 10 µM ([1]; 10 μM compound): -0.5 °C
ΔTm at 10 µM ([2]; 10 μM compound): -1.5 °C
Compound: CCN(CC)c1ccc(/C=N/NC(=O)c2ccc(O)cc2)cc1 [Compound 13oe]

ΔTm at 10 µM ([1]; 10 μM compound): 0 °C
ΔTm at 10 µM ([2]; 10 μM compound): 0.6 °C
Compound: CCN(CC)c1ccc(/C=N/NC(=O)C2CCN(CCO)CC2)cc1 [Compound 13oh, (E)-N′-(4-(diethylamino)benzylidene)-1-(2-hydroxyethyl)piperidine-4-carbohydrazide]

ΔTm at 100 µM ([1]; 100 μM compound): -1.5 °C
ΔTm at 100 µM ([2]; 100 μM compound): 2 °C
Compound: CCN(CC)c1ccc(/C=N/N2CCN(C(c3ccccc3)c3ccccc3)CC2)cc1 [Compound 15oa, (E)-4-(((4-benzhydrylpiperazin-1-yl)imino)methyl)-N,N-diethylaniline]

ΔTm at 25 µM ([1]; 25 μM compound): -1 °C
ΔTm at 25 µM ([2]; 25 μM compound): 0 °C
Compound: CCN(CC)c1ccc(/C=N/N(c2ccccc2)c2ccccc2)cc1 [Compound 15ob]

ΔTm at 2 µM ([1]; 2 μM compound): -2.4 °C
ΔTm at 2 µM ([2]; 2 μM compound): 4.3 °C
Compound: CCN(CC)c1ccc(/C=N/Nc2ccccc2)cc1 [Compound 15oc]

ΔTm at 10 µM ([1]; 10 μM compound): -1 °C
ΔTm at 10 µM ([2]; 10 μM compound): 0 °C
Compound: CCN(CC)c1ccc(/C=N/Nc2ccc(C#N)cc2)cc1 [Compound 15od, (E)-4-(2-(4-(diethylamino)benzylidene)hydrazineyl)benzonitrile]

ΔTm (° C.) −FGF2 ([1]; 50 μM compound): +1.5 °C
ΔTm (° C.) −FGFR1 ([2]; 50 μM compound): +1.2 °C
Compound: (4-(diethylamino)phenyl)(3-(trifluoromethyl)phenyl)methanone [Compound 9ob]

ΔTm (° C.) −FGF2 ([1]; 2 μM compound): −5.6 °C
ΔTm (° C.) −FGFR1 ([2]; 2 μM compound): +9.5 °C
Compound: (4-(diethylamino)phenyl)(3-methoxyphenyl)methanone [Compound 9oc]
